Experimental data as given in PMC12077194, “Structural basis for spermidine recognition and modulation of Acinetobacter baumannii multidrug efflux regulator AmvR” (mBio, 2025).

Assays:
[1] = target: T1, AmvR^E71A (Acinetobacter baumannii, UniProt A0A7U3Y8S7, E71A); test: ITC of polyamines with AmvR^E71A mutant; assay type: binding
T1 sequence (A0A7U3Y8S7 4-192 E71A): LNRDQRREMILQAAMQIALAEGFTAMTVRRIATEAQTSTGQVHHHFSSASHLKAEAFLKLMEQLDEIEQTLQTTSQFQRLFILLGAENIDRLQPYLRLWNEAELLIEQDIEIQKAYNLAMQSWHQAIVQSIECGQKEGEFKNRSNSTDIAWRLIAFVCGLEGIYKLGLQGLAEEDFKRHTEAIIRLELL
Experimental: (§1) The AmvR^WT or mutant proteins were purified with affinity chromatography followed by size-exclusion chromatography and buffer-exchange with buffer D. The polyamines were also dissolved in Buffer D. The ITC experiments were performed at 20°C using a MicroCal PEAQ-ITC (Malvern Panalytical Ltd) using 20 injections of 2 µL or 25 injections of 1.6 µL. A solution of 100 µM AmvR wild-type or mutants was loaded into the cell, whereas a 1 mM solution of polyamines was loaded into the syringe. The measured heat changes of the binding reactions were integrated and analyzed using the standard “one set of sites” model implemented in the Origin software package (OriginLab) to determine the binding stoichiometry (N-value) and the equilibrium dissociation constant (Kd).

[2] = target: T2, AmvR (Acinetobacter baumannii, UniProt A0A7U3Y8S7); test: Isothermal titration calorimetry of polyamines with apo AmvR wild-type; assay type: binding; details: ITC, 20°C, read-out: equilibrium dissociation constant (Kd)
T2 sequence (A0A7U3Y8S7 4-192): T1 sequence (A0A7U3Y8S7 4-192 E71A)
Experimental: as §1

[3] = target: T3, AmvR L99E (Acinetobacter baumannii, UniProt A0A7U3Y8S7, L99E); test: ITC of spermidine with AmvR L99E mutant; assay type: binding
T3 sequence (A0A7U3Y8S7 4-192 L99E): T1 sequence (A0A7U3Y8S7 4-192 E71A)
Experimental: as §1

[4] = target: T4, AmvR L86A (Acinetobacter baumannii, UniProt A0A7U3Y8S7, L86A); test: ITC of spermidine with AmvR L86A mutant; assay type: binding
T4 sequence (A0A7U3Y8S7 4-192 L86A): T1 sequence (A0A7U3Y8S7 4-192 E71A)
Experimental: as §1

[5] = target: T5, AmvR W102A (Acinetobacter baumannii, UniProt A0A7U3Y8S7, W102A); test: ITC of spermidine with AmvR W102A mutant; assay type: binding
T5 sequence (A0A7U3Y8S7 4-192 W102A): T1 sequence (A0A7U3Y8S7 4-192 E71A)
Experimental: as §1

[6] = target: T6, AmvR N103A (Acinetobacter baumannii, UniProt A0A7U3Y8S7, N103A); test: ITC of spermidine with AmvR N103A mutant; assay type: binding
T6 sequence (A0A7U3Y8S7 4-192 N103A): T1 sequence (A0A7U3Y8S7 4-192 E71A)
Experimental: as §1

[7] = target: T7, AmvR^E164A (Acinetobacter baumannii, UniProt A0A7U3Y8S7, E164A); test: ITC of spermidine with AmvR^E164A mutant; assay type: binding
T7 sequence (A0A7U3Y8S7 4-192 E164A): T1 sequence (A0A7U3Y8S7 4-192 E71A)
Experimental: as §1

[8] = target: T8, AmvR E65A (Acinetobacter baumannii, UniProt A0A7U3Y8S7, E65A); test: ITC of spermidine with AmvR E65A mutant; assay type: binding
T8 sequence (A0A7U3Y8S7 4-192 E65A): T1 sequence (A0A7U3Y8S7 4-192 E71A)
Experimental: as §1

[9] = target: T9, AmvR^L99Q (Acinetobacter baumannii, UniProt A0A7U3Y8S7, L99Q); test: ITC of spermidine with AmvR^L99Q mutant; assay type: binding
T9 sequence (A0A7U3Y8S7 4-192 L99Q): T1 sequence (A0A7U3Y8S7 4-192 E71A)
Experimental: as §1

[10] = target: T10, AmvR E106A (Acinetobacter baumannii, UniProt A0A7U3Y8S7, E106A); test: ITC of spermidine with AmvR E106A mutant; assay type: binding
T10 sequence (A0A7U3Y8S7 4-192 E106A): T1 sequence (A0A7U3Y8S7 4-192 E71A)
Experimental: as §1

[11] = target: T11, AmvR W126E (Acinetobacter baumannii, UniProt A0A7U3Y8S7, W126E); test: ITC of spermidine with AmvR W126E mutant; assay type: binding
T11 sequence (A0A7U3Y8S7 4-192 W126E): T1 sequence (A0A7U3Y8S7 4-192 E71A)
Experimental: as §1

[12] = target: AmvR (a.a. 4-192) from Acinetobacter baumannii, wild type (Acinetobacter baumannii); test: SEC; Superdex 75 Increase 10/300 GL, buffer F (200 mM NaCl, 20 mM Tris pH 8.0, 5 mM DTT), compared with gel filtration standards; AmvR^WT also with 2x and 10x spermidine

NCCCCCN [cadaverine]
Kd [1]: 69.9 µM | Kd [2]: 5.88 µM

NCCCCN [putrescine]
Kd [2]: 9.52 µM

NCCCCNCCCN [spermidine]
Kd [3]: 5.71 µM | Kd [4]: 6.21 µM | KD [5]: completely eliminated spermidine binding | Kd [6]: 1.22 µM | KD [7]: eliminated spermidine binding | Kd [8]: 0.96 µM | Kd [9]: 0.75 µM | Kd [10]: 7.09 µM | Kd [1]: 40.5 µM | Kd [11]: 7.52 µM | Kd [2]: 0.73 µM

NCCCNCCCCNCCCN [spermine]
Kd [1]: 88.5 µM | Kd [2]: 2.16 µM

AmvR (a.a. 4-192) from Acinetobacter baumannii, wild type (natural protein)
stoichiometry N [12]: 2
